Patent publication US5631265A, “8-substituted tetrahydro-beta-carbolines” (Eli Lilly and Company, priority 1995, dated 1997)
Read-outs that look alike come from different tables or passages of the source.

Legend:
[1] = target: T1, 5-HT2C receptor (Homo sapiens, UniProt P28335); assay: Radioligand binding, Human 2C (Table I)
T1 sequence (P28335 33-458): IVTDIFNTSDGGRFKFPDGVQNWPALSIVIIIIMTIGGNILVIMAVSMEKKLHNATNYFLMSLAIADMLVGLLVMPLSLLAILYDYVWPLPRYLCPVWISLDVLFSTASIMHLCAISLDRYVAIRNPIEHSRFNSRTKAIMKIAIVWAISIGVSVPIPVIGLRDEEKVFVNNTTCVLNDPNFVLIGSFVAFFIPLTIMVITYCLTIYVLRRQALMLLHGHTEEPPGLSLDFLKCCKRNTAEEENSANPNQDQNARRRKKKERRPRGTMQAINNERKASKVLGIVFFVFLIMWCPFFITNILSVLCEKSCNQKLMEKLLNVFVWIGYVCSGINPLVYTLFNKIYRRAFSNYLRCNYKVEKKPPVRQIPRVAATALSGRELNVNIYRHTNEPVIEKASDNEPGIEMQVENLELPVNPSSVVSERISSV
Experimental: (§1) [^3 H]5-HT binding studies. Binding assays were automated using a Biomek 1000 (Beckman instruments, Fullerton, Calif.) and were performed in triplicate in 0.8 ml total volume. Membrane suspension, 200 μl, (0.04-0.27 mg protein) and 200 μl of drug dilution in water were added to 400 μl of 67 mM Tris-HCl, pH 7.4, containing [^3 H]5-HT, pargyline, CaCl2, and L-ascorbic acid. Final concentrations of pargyline, CaCl2 and L-ascorbic acid were 10 μM, 3 mM and 0.1%, respectively. Tubes were incubated at 37° C. for 15 min or at 0° C. for 2 hours (binding equilibria were verified for both of these conditions), then rapidly filtered using a Brandel cell harvester (Model MB-48R; Brandel, Gaithersburg, Md.) through Whatman GF/B filters which had been presoaked in 0.5% polyethylenimine and precooled with ice-cold 50 mM Tris-HCl, pH 7.4. The filters were then washed rapidly four times with one ml ice-cold 50 mM Tris-HCl, pH 7.4. The amount of [^3 H]5-HT trapped on the filters was determined by liquid scintillation spectrometry (Ready Protein and Beckman automated using a Biomek 1000 (Beckman Instruments, Fullerton, Calif.) and were performed in triplicate in 0.8 ml total volume. Membrane suspension, 200 μl, (0.04-0.27 mg protein) and 200 μl of drug dilution in water were added to 400 μl of 67 mM Tris-HCl, pH 7.4, containing [^3 H]5-HT, pargyline, CaCl2, and L-ascorbic acid. Final concentrations of pargyline, CaCl2 and L-ascorbic acid were 10 μM, 3 mM and 0.1%, respectively. Tubes were incubated at 37° C. for 15 min or at 0° C. for 2 hours (binding equilibria were verified for both of these conditions), then rapidly filtered using a Brandel cell harvester (Model MB-48R; Brandel, Gaithersburg, Md.) through Whatman GF/B filters which had been presoaked in 0.5% polyethylenimine and precooled with ice-cold 50 mM Tris-HCl, pH 7.4. […]
(§2) Compounds of this invention were tested using the described in vitro assay. Results of the radioligand binding experiments are illustrated in Table I. The values reported in Table I are expressed as Ki calculated as described infra.

[2] = target: T2, cloned rat 5-HT2B receptor (Rattus norvegicus, UniProt P30994); assay: Radioligand binding, [3H]5-HT, cloned rat 5-HT2B receptor (Table I)
T2 construct: expressed in transfected cells
T2 sequence (P30994 whole entry): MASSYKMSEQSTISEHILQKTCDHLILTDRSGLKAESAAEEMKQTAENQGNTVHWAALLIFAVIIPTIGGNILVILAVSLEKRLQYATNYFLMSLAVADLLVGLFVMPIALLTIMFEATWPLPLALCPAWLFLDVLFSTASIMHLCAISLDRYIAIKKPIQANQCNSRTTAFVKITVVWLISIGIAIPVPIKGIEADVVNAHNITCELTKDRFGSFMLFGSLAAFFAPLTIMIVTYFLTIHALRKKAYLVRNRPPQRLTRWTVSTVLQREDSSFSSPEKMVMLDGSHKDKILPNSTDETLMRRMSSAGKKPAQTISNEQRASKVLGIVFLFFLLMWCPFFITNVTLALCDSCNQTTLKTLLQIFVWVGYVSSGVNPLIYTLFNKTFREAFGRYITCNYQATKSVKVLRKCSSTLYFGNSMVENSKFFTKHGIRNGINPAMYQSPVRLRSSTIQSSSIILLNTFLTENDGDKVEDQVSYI
Experimental: Radioligand Binding Studies
Membrane preparation from transformed cells. Suspension cells expressing the cloned rat 5-HT2B receptor were harvested by centrifugation at 2,200 ×g for 15 min at 4° C. Kursar, J. D., D. L. Nelson, D. B. Wainscott, M. L. Cohen, and M. Baez, Mol. Pharmacol., 42: 549-557 (1992). Membranes for the binding assays were prepared by vortexing the pellet in 50 mM Tris-HCl, pH 7.4 (0.5×10^9 cells/30 ml). The tissue suspension was then centrifuged at 39,800 ×g for 10 min at 4° C. This procedure was repeated for a total of three washes, with a 10 minute incubation at 37° C. between the first and second wash. The final pellet was homogenized in 67 mM Tris-HCl, pH 7.4 (at 20-40 and 12.5 million cells/ml, original cell number, for cells expressing low and relatively high levels of the 5-HT2B receptor, respectively) using a Tissumizer (Tekmar, Cincinnati, Ohio), setting 65 for 15 seconds.
[^3 H]5-HT binding studies. Binding assays were automated using a Biomek 1000 (Beckman instruments, Fullerton, Calif.) and were performed in triplicate in 0.8 ml total volume. Membrane suspension, 200 μl, (0.04-0.27 mg protein) and 200 μl of drug dilution in water were added to 400 μl of 67 mM Tris-HCl, pH 7.4, containing [^3 H]5-HT, pargyline, CaCl2, and L-ascorbic acid. Final concentrations of pargyline, CaCl2 and L-ascorbic acid were 10 μM, 3 mM and 0.1%, respectively. Tubes were incubated at 37° C. for 15 min or at 0° C. for 2 hours (binding equilibria were verified for both of these conditions), then rapidly filtered using a Brandel cell harvester (Model MB-48R; Brandel, Gaithersburg, Md.) through Whatman GF/B filters which had been presoaked in 0.5% polyethylenimine and precooled with ice-cold 50 mM Tris-HCl, pH 7.4. The filters were then washed rapidly four times with one ml ice-cold 50 mM Tris-HCl, pH 7.4. The amount of [^3 H]5-HT trapped on the filters was determined by liquid scintillation spectrometry (Ready Protein and Beckman automated using a Biomek 1000 (Beckman Instruments, Fullerton, Calif.) and were performed in triplicate in 0.8 ml total volume. Membrane suspension, 200 μl, (0.04-0.27 mg protein) and 200 μl of drug dilution in water were added to 400 μl of 67 mM Tris-HCl, pH 7.4, containing [^3 H]5-HT, pargyline, CaCl2, and L-ascorbic acid. Final concentrations of pargyline, CaCl2 and L-ascorbic acid were 10 μM, 3 mM and 0.1%, respectively. Tubes were incubated at 37° C. for 15 min or at 0° C. for 2 hours (binding equilibria were verified for both of these conditions), then rapidly filtered using a Brandel cell harvester (Model MB-48R; Brandel, Gaithersburg, Md.) through Whatman GF/B filters which had been presoaked in 0.5% polyethylenimine and precooled with ice-cold 50 mM Tris-HCl, pH 7.4. The filters were then washed rapidly four times with one ml ice-cold 50 mM Tris-HCl, pH 7.4. The amount of [^3 H]5-HT trapped on the filters was determined by liquid scintillation spectrometry (Ready Protein and Beckman determined for best fit to a one-site or a two-site binding model using a partial […]. De Lean, A., A. A. Hancock, and R. J. Lefkowitz, Mol. Pharmacol., 21:5-16 (1981). The following equation was used for a one-site binding model, [formula] where Bound=amount of [^3 H]5-HT specifically bound, Bmax =maximum number of binding sites, Kd =equilibrium dissociation constant and [L]=free concentration of [^3 H]5-HT, or a two-site binding model, [formula] where Bound=amount of [^3 H]5-HT specifically bound, Bmax1 =maximum number of high affinity binding sites, Bmax2 =maximum number of low affinity binding sites, Kd1 =equilibrium dissociation constant for the high affinity site, Kd2 =equilibrium dissociation constant for the low affinity site and [L]=free concentration of [^3 H]5-HT. […]

[3] = target: T3, 5-HT2C receptor (Rattus norvegicus, UniProt P08909); assay: Radioligand binding, Rat 2C (Table I)
T3 sequence (P08909 33-460): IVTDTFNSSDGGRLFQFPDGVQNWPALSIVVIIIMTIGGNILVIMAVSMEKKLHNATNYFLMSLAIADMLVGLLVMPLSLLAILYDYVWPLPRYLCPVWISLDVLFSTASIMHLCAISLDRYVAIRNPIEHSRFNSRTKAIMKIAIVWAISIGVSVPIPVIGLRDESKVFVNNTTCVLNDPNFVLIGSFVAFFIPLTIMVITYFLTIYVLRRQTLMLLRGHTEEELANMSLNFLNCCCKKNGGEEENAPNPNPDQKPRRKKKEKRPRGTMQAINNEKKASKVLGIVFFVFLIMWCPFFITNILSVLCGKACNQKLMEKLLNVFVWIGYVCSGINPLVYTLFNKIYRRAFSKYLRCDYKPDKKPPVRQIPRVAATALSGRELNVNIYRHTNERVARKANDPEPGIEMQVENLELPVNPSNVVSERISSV
Experimental: as §1, §2

[4] = target: 5-HT2B receptor (Homo sapiens, UniProt P41595); assay: Radioligand binding, Human 2B (Table I)
Chain of 5-HT2B receptor (P41595 whole entry): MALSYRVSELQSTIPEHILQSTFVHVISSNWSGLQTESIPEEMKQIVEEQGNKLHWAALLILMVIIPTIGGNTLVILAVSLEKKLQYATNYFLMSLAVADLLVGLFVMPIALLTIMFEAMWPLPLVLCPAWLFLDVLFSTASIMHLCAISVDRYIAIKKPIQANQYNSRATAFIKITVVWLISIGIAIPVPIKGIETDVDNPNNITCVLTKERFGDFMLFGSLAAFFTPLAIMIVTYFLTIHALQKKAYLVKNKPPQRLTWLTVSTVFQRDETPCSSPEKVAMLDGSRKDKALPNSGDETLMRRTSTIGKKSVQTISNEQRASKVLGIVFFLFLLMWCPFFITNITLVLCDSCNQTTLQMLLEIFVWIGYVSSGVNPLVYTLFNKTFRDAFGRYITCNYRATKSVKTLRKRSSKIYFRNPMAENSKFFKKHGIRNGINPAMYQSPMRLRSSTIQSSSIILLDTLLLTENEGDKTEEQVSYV
Experimental: as §1, with “Tubes were incubated at 37° C. for 15 min or at 0° C. for 2 hours (binding equilibria were verified for both of these conditions), then rapidly filtered using a Brandel cell harvester (Model MB-48R; Brandel, Gaithersburg, Md.) through Whatman GF/B filters which had been presoaked in 0.5% polyethylenimine and precooled with ice-cold 50 mM Tris-HCl, pH 7.4. The filters were then washed rapidly four times with one ml ice-cold 50 mM Tris-HCl, pH 7.4.” left out

[5] = Human 2C, Ki from IC50 by Cheng-Prusoff, read-out: Ki Human 2C
[6] = cloned rat 5-HT2B receptor, [3H]5-HT, Ki from IC50 by Cheng-Prusoff, read-out: Ki Rat 2B
[7] = Rat 2C, Ki from IC50 by Cheng-Prusoff, read-out: Ki Rat 2C

| Compound | Ki [2, 6] | Ki [2] | other results |
| --- | --- | --- | --- |
| Cc1ccc2c3c([nH]c2c1Br)CNCC3 [Example 1, 7-methyl-8-bromo-1,2,3,4-tetrahydro-9H-pyrido[3,4b]-indole] | 3.17 nM | – | Ki [1, 5]: 18.2 nM; Ki [3, 7]: 14.2 nM |
| CN1CCc2c([nH]c3ccc(O)cc23)C1 [Example 6] | 4610 nM | – | – |
| Cc1ccc2c3c([nH]c2c1C)CNCC3 [Example 7, 7,8-dimethyl-1,2,3,4-tetrahydro-9H-pyrido[3,4b]-indole] | 15.8 nM | – | – |
| CCCN1CCc2c([nH]c3c(OC)cccc23)C1 [Example 3, 8-methoxy-2(N)-propy1,2,3,4-tetrahydro-9H-pyrido[3,4b]-indole] | – | 114 nM | – |
| COc1cccc2c3c([nH]c12)CN(C)CC3 [Example 4, 8-methoxy-2(N)-methyl-1,2,3,4-tetrahydro-9H-pyrido[3,4b]-indole] | – | 71.7 nM | – |
| Cc1cc(Br)c2[nH]c3c(c2c1)CCNC3 [Example 8, 6-methyl-8-bromo-1,2,3,4-tetrahydro-9H-pyrido[3,4b]-indole] | 14 nM | – | Ki [1, 5]: 38.6 nM; Ki ([4]; Human 2B, Ki from IC50 by Cheng-Prusoff, read-out: Ki Human 2B): 16.4 nM; Ki [3, 7]: 34.9 nM |
| Brc1cccc2c3c([nH]c12)CNCC3 [Example 10, 8-bromo-1,2,3,4-tetrahydro-9H-pyrido[3,4b]-indole] | – | 6.2 nM | Ki [1]: 13.2 nM; Ki [4]: 9.68 nM; Ki [3]: 22.4 nM |
| Fc1cc(F)c2[nH]c3c(c2c1)CCNC3 [Example 9, 6,8-difluoro-1,2,3,4-tetrahydro-9H-pyrido[3,4b]-indole] | – | 57.9 nM | – |
| COc1cccc2c3c([nH]c12)CN(CC1CC1)CC3 [Example 5, 8-methoxy-2(N)-cyclopropylmethyl-1,2,3,4-tetrahydro-9H-pyrido[3,4b]-indole] | – | 97.5 nM | – |
| COc1cccc2c3c([nH]c12)CNCC3 [Example 2, 8-methoxy-1,2,3,4-tetrahydro-9H-pyrido[3,4b]-indole] | – | 34.5 nM | – |
